Measurements from patent US7563592B2, “Alizarin-based chromogenic substrates, their uses and composition containing same” (Biomerieux, S.A., priority 1999, dated 2009).

How the values were obtained:
[1] = tested on: Serratia marcescens 042; assay: β-galactosidase detection in semi-solid Columbia medium (Example 1); assay type: cell-based
[2] = tested on: Acinetobacter spp.; assay: β-galactosidase detection on semi-solid medium, clinical and environmental strains (Example 2); assay type: cell-based; conditions: 50 mg/l + iron citrate 500 mg/l; 18 hours; 53 strains tested
[3] = tested on: Aeromonas hydrophila; assay: as above; assay type: cell-based; conditions: 50 mg/l + iron citrate 500 mg/l; 18 hours; 3 strains tested
[4] = tested on: Citrobacter diversus; assay: as above; assay type: cell-based; conditions: 50 mg/l + iron citrate 500 mg/l; 18 hours; 9 strains tested
[5] = tested on: Klebsiella pneumoniae; assay: as above; assay type: cell-based; conditions: 50 mg/l + iron citrate 500 mg/l; 18 hours; 19 strains tested
[6] = tested on: Morganella morganii; assay: as above; assay type: cell-based; conditions: 50 mg/l + iron citrate 500 mg/l; 18 hours; 12 strains tested
[7] = tested on: Proteus penneri; assay: as above; assay type: cell-based; conditions: 50 mg/l + iron citrate 500 mg/l; 18 hours; 1 strain tested
[8] = tested on: Providencia alcalifaciens; assay: as above; assay type: cell-based; conditions: 50 mg/l + iron citrate 500 mg/l; 18 hours; 3 strains tested
[9] = tested on: Serratia spp.; assay: as above; assay type: cell-based; conditions: 50 mg/l + iron citrate 500 mg/l; 18 hours; 14 strains tested
[10] = tested on: β-galactosidase (EC 3.2.1.23 Sigma); assay: Effect of pH on β-D-galactosidase detection, substrate 0.05 g/l in water (Example 4); assay type: biochemical
Experimental: To each of eighteen tubes containing 5 ml of osmotically purified water, the following were added Alizarin-2-β-D-galactoside (0.05 g/l) and 5 μl of β-galactosidase (EC 3.2.1.23 Sigma). Ammoniacal iron citrate (0.05 g/l) was added to half of these tubes. […] Finally, the pH of these tubes was adjusted to different values (2-3-4-5-6-7-8-9-10) at 24° C.

[11] = tested on: 367 different strains collected from clinical and environmental specimens; assay: β-galactosidase detection on semi-solid medium, all strains together (Example 2); assay type: cell-based; conditions: 18 hours at 37° C.
[12] = tested on: Listeria seeligeri 011; assay: Effect of metal salts on the color of the marker part, substrate 50 mg/l in Columbia medium (Example 3); assay type: cell-based
Experimental: To the Columbia-base medium (46.37 g/l) supplemented with Alizarin-2-β-D-glucoside (50 mg/l), were added either Manganese chloride, Ammoniacal iron citrate, Tin chloride, or Aluminum sulfate, all at a concentration of 50 mg/l. A control medium with no metal salts was tested in parallel. After autoclaving, these various media were all used to prepare Petri dishes (20 ml per plate). […] It should be pointed out that intensity readings are in arbitrary units. The only purpose of giving these values is to make it possible to compare one strain with another in this respect. The same is true for the examples which follow. Similarly, the strains tested were taken from the Applicant's collection and the number given represents an internal reference specific to this collection. The same internal numbering system is also used in some of the examples given later on.

[13] = tested on: Citrobacter koseri 059; assay: Comparison of glucoside substrates in semi-solid Columbia medium (Example 7); assay type: cell-based; conditions: 0.05 g/l + iron citrate 0.05 g/l
[14] = tested on: Listeria monocytogenes 022; assay: β-glucosidase detection in API strip wells (Example 6); conditions: 0.12 g/l + iron citrate 0.05 g/l
[15] = tested on: Listeria ivanovii 018; assay: as above; conditions: 0.12 g/l + iron citrate 0.05 g/l
[16] = Manganese chloride 50 mg/l, 24 H
[17] = Manganese chloride 50 mg/l, 48 H

SMILES: O=C1c2ccccc2C(=O)c2c1ccc(O[C@@H]1O[C@H](CO)[C@H](O)[C@H](O)[C@H]1O)c2O [Alizarin-2-β-D-galactoside]
- Color ([1]; 0.01 g/l + iron citrate, 48 H): purple
- Intensity ([1]; 0.01 g/l + iron citrate, 48 H): 0.3
- Color ([1]; 0.03 g/l + iron citrate, 18 H): purple
- Intensity ([1]; 0.03 g/l + iron citrate, 18 H): 0.5
- Color ([1]; 0.03 g/l + iron citrate, 24 H): purple
- Intensity ([1]; 0.03 g/l + iron citrate, 24 H): 1
- Color ([1]; 0.03 g/l + iron citrate, 48 H): purple
- Intensity ([1]; 0.03 g/l + iron citrate, 48 H): 1.7
- Color ([1]; 0.05 g/l + iron citrate, 18 H): purple
- Intensity ([1]; 0.05 g/l + iron citrate, 18 H): 1
- Color ([1]; 0.05 g/l + iron citrate, 24 H): purple
- Intensity ([1]; 0.05 g/l + iron citrate, 24 H): 2.5
- Color ([1]; 0.05 g/l + iron citrate, 48 H): purple
- Intensity ([1]; 0.05 g/l + iron citrate, 48 H): 3
- Color ([1]; 0.08 g/l + iron citrate, 18 H): purple
- Intensity ([1]; 0.08 g/l + iron citrate, 18 H): 2
- Color ([1]; 0.08 g/l + iron citrate, 24 H): purple
- Intensity ([1]; 0.08 g/l + iron citrate, 24 H): 2.5
- Color ([1]; 0.08 g/l + iron citrate, 48 H): purple
- Intensity ([1]; 0.08 g/l + iron citrate, 48 H): 3.5
- percentage of positive strains [2]: 0%
- percentage of positive strains [3]: 100%
- percentage of positive strains [4]: 89%
- percentage of positive strains [5]: 100%
- percentage of positive strains [6]: 0%
- percentage of positive strains [7]: 0%
- percentage of positive strains [8]: 0%
- percentage of positive strains [9]: 86%
- color of the tubes after incubation, before pH adjustment ([10]; 4 hours at 37° C., no Ammoniacal iron citrate): light pink
- pink coloration of the tubes after incubation, before pH adjustment ([10]; 4 hours at 37° C., with Ammoniacal iron citrate 0.05 g/l, versus tubes without): more intense
- Color ([10]; pH 2, no iron): Yellow
- Color ([10]; pH 2, with iron (Ammoniacal iron citrate 0.05 g/l)): Yellow
- Color ([10]; pH 3, no iron): Yellow
- Color ([10]; pH 3, with iron (Ammoniacal iron citrate 0.05 g/l)): Yellow
- Color ([10]; pH 4, no iron): Yellow
- Color ([10]; pH 4, with iron (Ammoniacal iron citrate 0.05 g/l)): Yellow
- Color ([10]; pH 5, no iron): Yellow-Orange
- Color ([10]; pH 5, with iron (Ammoniacal iron citrate 0.05 g/l)): Yellow-Pink
- Color ([10]; pH 6, no iron): Pink-Orange
- Color ([10]; pH 6, with iron (Ammoniacal iron citrate 0.05 g/l)): Pink
- Color ([10]; pH 7, no iron): Pink-Orange
- Color ([10]; pH 7, with iron (Ammoniacal iron citrate 0.05 g/l)): Pink
- Color ([10]; pH 8, no iron): Pink
- Color ([10]; pH 8, with iron (Ammoniacal iron citrate 0.05 g/l)): Purple
- Color ([10]; pH 9, no iron): Purple
- Color ([10]; pH 9, with iron (Ammoniacal iron citrate 0.05 g/l)): Purple
- Color ([10]; pH 10, no iron): Mauve
- Color ([10]; pH 10, with iron (Ammoniacal iron citrate 0.05 g/l)): Mauve
- color of colonies expressing β-galactosidase activity ([11]; 50 mg/l + iron citrate 500 mg/l): purple
- strains that selectively hydrolyzed this substrate (not the reference substrate) ([11]; of 367 strains): Eight

SMILES: O=C1c2ccccc2C(=O)c2c1ccc(O[C@@H]1O[C@H](CO)[C@@H](O)[C@H](O)[C@H]1O)c2O [Alizarin-2-β-D-glucoside]
- Color ([12]; Aluminum sulfate 50 mg/l, 24 H): red
- Intensity ([12]; Aluminum sulfate 50 mg/l, 24 H): 4 arbitrary units
- Color ([12]; Aluminum sulfate 50 mg/l, 48 H): red
- Intensity ([12]; Aluminum sulfate 50 mg/l, 48 H): 4 arbitrary units
- Color ([12]; Control, no metal salt, 24 H): purple
- Intensity ([12]; Control, no metal salt, 24 H): 2.3 arbitrary units
- Color ([12]; Control, no metal salt, 48 H): purple
- Intensity ([12]; Control, no metal salt, 48 H): 2.3 arbitrary units
- Color ([12]; Iron citrate 50 mg/l, 24 H): purple
- Intensity ([12]; Iron citrate 50 mg/l, 24 H): 4 arbitrary units
- Color ([12]; Iron citrate 50 mg/l, 48 H): purple
- Intensity ([12]; Iron citrate 50 mg/l, 48 H): 4 arbitrary units
- Color [12, 16]: purple
- Intensity [12, 16]: 2.7 arbitrary units
- Color [12, 17]: purple
- Intensity [12, 17]: 2.7 arbitrary units
- Color ([12]; Tin chloride 50 mg/l, 24 H): orange
- Intensity ([12]; Tin chloride 50 mg/l, 24 H): 3 arbitrary units
- Color ([12]; Tin chloride 50 mg/l, 48 H): orange
- Intensity ([12]; Tin chloride 50 mg/l, 48 H): 4 arbitrary units
- Color ([13]; 18 H): Mauve
- Intensity ([13]; 18 H): 2 arbitrary units
- Color ([13]; 24 H): Mauve
- Intensity ([13]; 24 H): 3 arbitrary units
- Color ([13]; 48 H): Mauve
- Intensity ([13]; 48 H): 3.5 arbitrary units
- Color observed ([14]; 4 H): Purple
- Color observed ([14]; 24 H): Purple
- Color observed ([15]; 4 H): Purple
- Color observed ([15]; 24 H): Purple
